This note sets out measurements from PubChem BioAssay AID588462 (The Scripps Research Institute Molecular Screening Center, 2011).

Calls of active or inactive are those of the source. The rule behind the calls is not given here.

In general, IC50 refers to the concentration needed to halve the response being measured.

Assay in all cases: PAD1-3 enzyme inhibition potency, late-stage follow-up, biochemical, colorimetric, BAEE substrate, recombinant PAD1-3 (AID 588462)
Assay [1] concerns the target Protein-arginine deiminase type-1 (Homo sapiens) (UniProt Q9ULC6). Conditions: recombinant PAD1-3, BAEE citrullination, colorimetric absorbance; PAD1.
Assay [2] concerns the target Protein-arginine deiminase type-2 (Homo sapiens) (UniProt Q9Y2J8). Conditions: recombinant PAD1-3, BAEE citrullination, colorimetric absorbance; PAD2.
In assay [3] the target is Protein-arginine deiminase type-3 (Homo sapiens) (UniProt Q9ULW8). Conditions: recombinant PAD1-3, BAEE citrullination, colorimetric absorbance; PAD3.
Chain of Protein-arginine deiminase type-3 (Homo sapiens) (Q9ULW8 whole entry, looked up): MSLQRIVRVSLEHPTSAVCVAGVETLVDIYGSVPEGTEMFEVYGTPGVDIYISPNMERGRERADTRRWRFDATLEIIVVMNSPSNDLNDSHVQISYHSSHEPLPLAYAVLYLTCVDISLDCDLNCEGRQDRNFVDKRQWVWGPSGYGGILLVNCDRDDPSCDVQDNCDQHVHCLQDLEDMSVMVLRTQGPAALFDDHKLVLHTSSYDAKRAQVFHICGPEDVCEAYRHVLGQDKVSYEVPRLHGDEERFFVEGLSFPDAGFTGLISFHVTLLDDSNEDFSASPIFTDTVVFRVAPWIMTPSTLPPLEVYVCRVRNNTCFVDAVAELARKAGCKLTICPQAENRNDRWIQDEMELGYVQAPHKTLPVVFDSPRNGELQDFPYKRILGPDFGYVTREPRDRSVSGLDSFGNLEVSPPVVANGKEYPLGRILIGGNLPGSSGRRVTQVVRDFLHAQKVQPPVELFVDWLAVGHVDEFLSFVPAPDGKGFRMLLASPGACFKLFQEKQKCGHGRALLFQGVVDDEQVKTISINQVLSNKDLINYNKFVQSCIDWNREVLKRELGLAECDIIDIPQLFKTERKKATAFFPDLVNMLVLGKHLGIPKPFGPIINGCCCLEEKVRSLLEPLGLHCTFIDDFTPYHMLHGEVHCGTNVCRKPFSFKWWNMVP

Chain of Protein-arginine deiminase type-2 (Homo sapiens) (Q9Y2J8 whole entry, looked up): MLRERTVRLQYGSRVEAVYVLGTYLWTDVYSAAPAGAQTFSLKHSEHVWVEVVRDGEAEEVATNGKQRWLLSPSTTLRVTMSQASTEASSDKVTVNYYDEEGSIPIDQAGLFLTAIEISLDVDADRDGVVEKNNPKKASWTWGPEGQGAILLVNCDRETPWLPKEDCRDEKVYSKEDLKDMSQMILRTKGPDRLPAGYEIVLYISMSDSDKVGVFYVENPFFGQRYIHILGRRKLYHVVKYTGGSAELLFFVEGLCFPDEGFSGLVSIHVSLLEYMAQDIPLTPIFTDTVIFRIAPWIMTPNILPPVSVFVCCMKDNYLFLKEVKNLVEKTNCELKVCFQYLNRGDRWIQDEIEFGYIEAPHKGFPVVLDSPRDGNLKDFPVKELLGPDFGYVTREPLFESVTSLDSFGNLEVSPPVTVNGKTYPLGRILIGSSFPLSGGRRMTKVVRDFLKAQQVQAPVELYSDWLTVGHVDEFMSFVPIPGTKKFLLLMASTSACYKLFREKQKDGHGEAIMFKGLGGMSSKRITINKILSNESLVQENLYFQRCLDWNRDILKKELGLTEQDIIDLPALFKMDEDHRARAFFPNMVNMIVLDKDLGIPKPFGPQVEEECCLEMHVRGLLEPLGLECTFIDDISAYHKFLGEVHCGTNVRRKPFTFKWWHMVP
Chain of Protein-arginine deiminase type-1 (Homo sapiens) (Q9ULC6 whole entry, looked up): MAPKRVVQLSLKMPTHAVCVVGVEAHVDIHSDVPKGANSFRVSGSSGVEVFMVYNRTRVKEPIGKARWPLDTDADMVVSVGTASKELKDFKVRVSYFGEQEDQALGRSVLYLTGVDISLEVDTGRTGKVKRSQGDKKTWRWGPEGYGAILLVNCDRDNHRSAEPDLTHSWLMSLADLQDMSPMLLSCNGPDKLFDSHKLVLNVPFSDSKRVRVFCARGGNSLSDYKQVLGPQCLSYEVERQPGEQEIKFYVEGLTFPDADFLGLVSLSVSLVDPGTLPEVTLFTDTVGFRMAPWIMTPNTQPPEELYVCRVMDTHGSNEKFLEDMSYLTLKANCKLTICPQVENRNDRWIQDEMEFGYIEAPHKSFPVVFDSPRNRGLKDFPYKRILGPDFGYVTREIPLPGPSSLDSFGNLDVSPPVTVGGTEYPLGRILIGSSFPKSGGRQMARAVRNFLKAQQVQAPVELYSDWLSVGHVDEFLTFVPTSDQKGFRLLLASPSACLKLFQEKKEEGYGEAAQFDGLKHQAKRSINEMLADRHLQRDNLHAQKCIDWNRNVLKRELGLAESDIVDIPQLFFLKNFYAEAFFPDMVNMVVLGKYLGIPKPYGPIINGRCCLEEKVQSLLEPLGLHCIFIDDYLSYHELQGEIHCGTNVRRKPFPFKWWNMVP

For `COC1=C(N)C(=O)c2nc(-c3nc(C(=O)O)c(C)c(-c4ccc(OC)c(OC)c4O)c3N)ccc2C1=O`, the IC50 entry in assay [1] and in assay [2] was “inactive” each time. For the same compound, the half-maximal inhibitory concentration (IC50) in assay [3] is 0.43 µM.
